Assays:
[1] = system: fibrotic lung fibroblasts from patients with IPF; assay: FN and Col1α1 in fibrotic lung fibroblasts without TGF-β stimulation, western blot; type: cell-based, human
From the text: FIGS. 1A-1F. ECM production in recombinant endostatin- and endostatin-derived peptide-treated fibroblasts in combination with TGF-β stimulation. A: FN and Col1α1 expression in human normal lung fibroblasts (NL) treated with vehicle (V), rE alone, or both with prior TGF-β stimulation. Proteins were detected western blot. GAPDH was used as a loading control for lysates. B: FN and Col1α1 expression of endostatin polypeptide-treated lung fibroblasts following TGF-β stimulation in primary pulmonary fibroblasts from a healthy control, a patient with SSc, and a patient with IPF. C: Graphical summary of FN and Col1α1 expression in lung fibroblasts obtained using fibroblasts from 4 healthy controls (NL), 3 patients with SSc, and 3 patients with IPF. Intensity of bands was normalized to that of GAPDH and expressed as a ratio to Vehicle (V). Paired-t test was used for statistical analysis. * P<0.04, ** P<0.01. D: Representative result of FN and Col1α1 levels in human skin fibroblasts obtained from a patient with morphea and a patient with SSc. E: Representative result of FN and Col1α1 expression in fibrotic fibroblasts obtained from a patients with IPF treated with V, 5 μg/ml of rE, or endostatin polypeptides alone (left). IPF fibroblasts were treated with different concentrations (5, 10, and 20 μg/ml) of E4. DMSO (V) was added in a volume equivalent to that in the lane corresponding to 20 μg/ml of E4 (right). […]
Cellular lysates were obtained from cultured fibroblasts as previously described (Pilewski et al., Am J Pathol 2005; 166:399-407). […] Cellular lysates were analyzed by western blot. Signals were detected following incubation with horseradish peroxidase-conjugated secondary antibody and chemiluminescence (Perkin Elmer Life Sciences, Inc., Boston, Mass.). The intensity of individual bands with expected molecular sizes was semi-quantitatively analyzed using the image/J® software available at on the internet (/rsb.info.nih.gov/ij/index.html), and normalized to individual GAPDH intensity. […]

human skin explants = assay: Ex vivo human skin fibrosis organ culture, dermal thickness; type: cell-based
Method: Human abdominal skin was obtained from corrective plastic surgery. As previously described (Yasuoka et al., The Open Rheumatol J 2008; 2:17-22), subcutaneous fat tissue was removed uniformly and skin tissue was cut into 1.5 cm×1.5 cm sections. The following were injected intradermally in a total volume of 100 μl 1×PBS: rE alone (1-10 μg/ml), endostatin peptides alone (10 μg/ml), rE or endostatin peptides (1-20 μg/ml) in combination with TGF-β (10 ng/ml), and TGF-β alone (10 ng/ml). In some experiments, human skin was first injected with TGF-β for 48 h followed by recombinant endostain (rE) administration in the same injection site as TGF-β. Explants containing complete epidermal and dermal layers were cultured in an air liquid interface with the epidermal and keratin layers side up and exposed to air. The culture medium was replaced every other day. After 1 or 2 weeks, skin tissue corresponding to an area with 8-mm diameter centered around the injection site was harvested using disposable 8-mm Acu Punch® (Acuderm inc., Lauderdale, Fla.). Skin tissue was fixed in 10% formalin prior to embedding in paraffin.
Six μm sections of paraffin-embedded human and mouse skin tissues were stained with hematoxylin and eosin (H&E). In some experiments, sections were stained with Masson trichrome which identifies collagens. Images were taken on a Nikon Eclipse 800 microscope. The thickness of the dermis was measured in 6 random fields of each section using the image/J® software. Data are shown in arbitrary units.

[2] = system: Human umbilical vein endothelial cells (HUVECs); assay: Tubular formation assay in Matrigel; type: cell-based; settings: 50 nM, 24 hours
Method: The ability of endostatin peptide to inhibit angiogenesis was examined in tubular formation assay using Matrigel® culture. Human umbilical vein endothelial cells (HUVECs) were maintained in endothelial cell basal medium-2 (EBM-2; Clonetics, San Diego, Calif.) supplemented with EBM-2 MV SingleQuots®. HUVECs (5×10^4) were cultured in duplicate on 24-well Matrigel® plates (BD Biosciences, San Diego, Calif.) alone, or in the presence of rE or E4 peptide (50 nM) in EBM-2 at 37° C. DMSO was used as vehicle control. After 24 hours, images were captured using a […] microscope. The degree of cord formation was quantified by measuring the area occupied by tubes in 6 random fields per well. Three independent experiments were performed.

lysyl oxidase (LOX) = assay: LOX immunohistochemistry in lung sections of bleomycin-treated mice; type: in vivo, mouse; settings: lung sections of mice treated with bleomycin with or without E4
From the text: FIG. 12. […] Lung sections of mice treated with BLM with or without E4 were used in immunohistochemistry to detect LOX. The sections shown are control IgG, phosphate buffered saline, bleomycin and bleomycin followed by treatment with E4.
The results also evidenced that E4 exerts its anti-fibrotic effects via multiple pathways. E4 reduces levels of lysyl oxidase (LOX), and enzyme responsible for the cross-linking of collagen, elastin, and other extracellular matrix (ECM) molecules and thus the stabilization of the ECM.

ID1 = ID1 mRNA real-time PCR in primary human lung fibroblasts; type: cell-based
Method: FIG. 15. E4 reduces fibrosis in vitro by inducing expression of ID1, an inhibitor of TGF β, in primary human lung fibroblasts. Real-time PCR analysis was performed to determine the ID1 mRNA levels under the indicated conditions.

[3] = no TGF-β, 5, 10 and 20 μg/ml, vs vehicle control

levels of lysyl oxidase (LOX) (lysyl oxidase (LOX)): reduces
Substance: H-^133SYCETWRTEAPSATGQASSLLGGRLLGQSAASCHHAYIVLCIENSFMT^180-CONH2 (H-SYCETWRTEAPSATGQASSLLGGRLLGQSAASCHHAYIVLCIENSFMT-NH2; cysteine pairing not given here; UniProt P39060 1704-1751, looked up, fragment) [E4, amino acids 133-180 of human endostatin; differs from E3 by the presence of a carboxy-terminal amide]
FN and Col1α1 levels ([1]; no TGF-β stimulation, peptide alone): decreased
Col1α1 levels [1, 3]: dose-dependently reduced
FN levels [1, 3]: modest effect
TGF-β-induced skin fibrosis (dermal thickness), dose response (human skin explants; 1, 5, 10, 20 μg/ml with TGF-β 10 ng/ml, effect at 5-20 μg/ml): clearly ameliorated
dermal thickness, baseline effect (human skin explants; injected alone without TGF-β, rE 1, 5, 10 μg/ml, peptides 10 μg/ml): tendency towards reduction
development of fibrosis as measured by dermal thickness (human skin explants; peptides 10 μg/ml with TGF-β 10 ng/ml, vs TGF-β alone): significantly abolished
inhibition of tubular structure formation [2]: modest
levels of inhibitor of differentiation (ID)-1 (ID1): increases
